# Activity calls are given as the source filed them.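 Rule for the calls: active = half-inhibitory concentration IC50 below 35 µM against dopamine receptor luciferase signal; inactive = the rest.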
# Tested on: HEK293 dopamine receptor CRE-luciferase, antagonist mode
# Assay: dopamine receptor CRE reporter signal reduction – cell-based, HEK293, luminescence, dry powder, counter-screen for LGR2 project, dose response (AID 743501)
row,Structure (SMILES),IC50
1,C[C@H](CO)N1C[C@H](C)[C@H](CN(C)C(=O)Nc2ccc(F)cc2)OCCCC[C@H](C)Oc2ccc(NC(=O)C3CCCCC3)cc2C1=O,< 35 µM
2,C[C@H](CO)N1C[C@H](C)[C@H](CN(C)C(=O)Nc2ccc3c(c2)OCO3)OCCCC[C@H](C)Oc2ccc(NC(=O)C3CCCCC3)cc2C1=O,< 35 µM
3,C[C@@H]1CCCCO[C@H](CN(C)C(=O)Nc2ccc(F)cc2)[C@H](C)CN([C@@H](C)CO)C(=O)c2cc(NC(=O)C3CCCCC3)ccc2O1,> 35 µM (inactive)
4,COc1ccc(NC(=O)N(C)C[C@@H]2OCCCC[C@H](C)Oc3ccc(NC(=O)C4CCCCC4)cc3C(=O)N([C@H](C)CO)C[C@@H]2C)cc1,> 35 µM (inactive)
5,C[C@H](CO)N1C[C@H](C)[C@H](CN(C)C(=O)Nc2ccccc2)OCCCC[C@H](C)Oc2ccc(NC(=O)C3CCCCC3)cc2C1=O,< 35 µM

# Reference: PubChem BioAssay AID743501 (Broad Institute, 2014)
